How the values were obtained:
FAK [1] = target: T1, FAK (Homo sapiens, UniProt Q05397); assay: Cell-based capture ELISA for inhibition of FAK autophosphorylation [pY397] in MiaPaCa2 cells
Method: Cell-Based Assays for Inhibition of FAK Autophosphorylation: MiaPaCa2 and U87MG
ELISA kit from Invitrogen (KHO0441).
Reagents Provided in Biosource FAK [pY397]
The cells were then suspended in cell assay medium.

FAK [2] = target: T1, FAK; assay: biochemical
[3] = MIA-PaCa2 cells on fibronectin, 2 h, no plasma, read-out: Mean FAK Cell Mechanistic IC50 MIA-PaCa2
[4] = MIA-PaCa2 cells, + 50% human plasma, read-out: Mean FAK Cell Mechanistic IC50 + 50% hP MIA-PaCa2
[5] = MIA-PaCa2 cells, + 50% mouse plasma (Table 2), read-out: Mean FAK Cell Mechanistic IC50 + 50% mP MIA-PaCa2

T1 sequence (Q05397 whole entry): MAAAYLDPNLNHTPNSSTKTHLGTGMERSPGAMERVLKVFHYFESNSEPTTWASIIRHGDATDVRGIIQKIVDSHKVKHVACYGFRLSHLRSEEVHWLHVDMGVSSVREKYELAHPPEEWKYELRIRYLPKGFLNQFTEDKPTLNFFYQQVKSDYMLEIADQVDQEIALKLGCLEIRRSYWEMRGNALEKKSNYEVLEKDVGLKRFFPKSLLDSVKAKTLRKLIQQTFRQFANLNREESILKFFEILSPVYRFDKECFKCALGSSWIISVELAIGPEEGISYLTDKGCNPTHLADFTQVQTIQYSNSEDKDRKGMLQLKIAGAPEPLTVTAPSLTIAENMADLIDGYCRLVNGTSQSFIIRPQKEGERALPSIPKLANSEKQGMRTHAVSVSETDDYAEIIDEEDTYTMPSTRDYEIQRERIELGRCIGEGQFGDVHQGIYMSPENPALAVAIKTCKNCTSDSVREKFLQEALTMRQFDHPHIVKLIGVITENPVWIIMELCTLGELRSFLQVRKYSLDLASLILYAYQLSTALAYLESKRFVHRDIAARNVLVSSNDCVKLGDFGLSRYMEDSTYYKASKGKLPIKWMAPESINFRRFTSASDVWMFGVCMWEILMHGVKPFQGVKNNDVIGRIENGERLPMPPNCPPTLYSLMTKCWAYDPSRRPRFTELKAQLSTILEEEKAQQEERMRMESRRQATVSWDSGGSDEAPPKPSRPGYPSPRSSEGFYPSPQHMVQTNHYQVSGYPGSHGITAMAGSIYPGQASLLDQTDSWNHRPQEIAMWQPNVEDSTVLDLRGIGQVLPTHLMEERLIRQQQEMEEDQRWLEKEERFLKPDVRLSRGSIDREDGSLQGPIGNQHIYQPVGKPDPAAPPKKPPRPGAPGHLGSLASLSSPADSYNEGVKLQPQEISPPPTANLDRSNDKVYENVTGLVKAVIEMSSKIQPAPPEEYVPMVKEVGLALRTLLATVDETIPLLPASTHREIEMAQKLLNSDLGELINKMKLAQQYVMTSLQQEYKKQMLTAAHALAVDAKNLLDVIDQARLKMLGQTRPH

| Structure (SMILES) | IC50 (FAK [1]; [3]) [µM] | IC50 (FAK [1]; [4]) [µM] | IC50 (FAK [2]) [µM] | IC50 (FAK [1]; [5]) [µM] |
| --- | --- | --- | --- | --- |
| C=C(C)c1ccc(Nc2nc(Nc3ccc(CP(C)(=O)OCC)cc3)ncc2C(F)(F)F)c2c1CN(C)C2=O (centres unmarked) [Example 68, Ethyl methyl(4-{[4-{[2-methyl-3-oxo-7-(prop-1-en-2-yl)-2,3-dihydro-1H-isoindol-4-yl]amino}-5-(trifluoromethyl)pyrimidin-2-yl]amino}benzyl)phosphinate] | < 1 | 1 to 10 | < 1 | – |
| CCOP(=O)(Cc1ccc(Nc2ncc(C(F)(F)F)c(Nc3ccc(-c4cnn(CCO)c4)c4c3C(=O)N(C)C4)n2)c(OC)c1)OCC [Example 69, Diethyl (4-{[4-({7-[1-(2-hydroxyethyl)-1H-pyrazol-4-yl]-2-methyl-3-oxo-2,3-dihydro-1H-isoindol-4-yl}amino)-5-(trifluoromethyl)pyrimidin-2-yl]amino}-3-methoxybenzyl)phosphonate] | < 1 | < 1 | < 1 | – |
| CCOP(=O)(Cc1ccc(Nc2ncc(C(F)(F)F)c(Nc3ccc(-c4cnn(C[C@H](O)CO)c4)c4c3C(=O)N(C)C4)n2)c(OC)c1)OCC [Example 70, Diethyl [4-({4-[(7-{1-[(2S)-2,3-dihydroxypropyl]-1H-pyrazol-4-yl}-2-methyl-3-oxo-2,3-dihydro-1H-isoindol-4-yl)amino]-5-(trifluoromethyl)pyrimidin-2-yl}amino)-3-methoxybenzyl]phosphonate] | < 1 | < 1 | < 1 | – |
| CCOP(=O)(Cc1ccc(Nc2ncc(C(F)(F)F)c(Nc3ccc(-c4cnn(C)c4)c4c3C(=O)N(C)C4)n2)c(OC)c1)OCC [Example 71, Diethyl (3-methoxy-4-{[4-{[2-methyl-7-(1-methyl-1H-pyrazol-4-yl)-3-oxo-2,3-dihydro-1H-isoindol-4-yl]amino}-5-(trifluoromethyl)pyrimidin-2-yl]amino}benzyl)phosphonate] | < 1 | < 1 | < 1 | – |
| CCOP(=O)(Cc1ccc(Nc2ncc(C(F)(F)F)c(Nc3ccc(-c4cnn(CC(C)(C)O)c4)c4c3C(=O)N(C)C4)n2)c(OC)c1)OCC [Example 72, Diethyl (4-{[4-({7-[1-(2-hydroxy-2-methylpropyl)-1H-pyrazol-4-yl]-2-methyl-3-oxo-2,3-dihydro-1H-isoindol-4-yl}amino)-5-(trifluoromethyl)pyrimidin-2-yl]amino}-3-methoxybenzyl)phosphonate] | – | – | < 1 | < 1 |
| CCOP(=O)(Cc1ccc(Nc2ncc(C(F)(F)F)c(Nc3ccc(C4=CCN(C(N)=O)CC4)c4c3C(=O)N(C)C4)n2)c(OC)c1)OCC [Example 73, Diethyl (4-{[4-{[7-(1-carbamoyl-1,2,3,6-tetrahydropyridin-4-yl)-2-methyl-3-oxo-2,3-dihydro-1H-isoindol-4-yl]amino}-5-(trifluoromethyl)pyrimidin-2-yl]amino}-3-methoxybenzyl)phosphonate] | – | – | < 1 | < 1 |
| CCOP(C)(=O)Cc1ccc(Nc2ncc(C(F)(F)F)c(Nc3ccc(C#CC(C)(C)O)c4c3C(=O)N(C)C4)n2)cc1 (centres unmarked) [Example 75] | < 1 | < 1 | < 1 | – |
| CCOP(C)(=O)Cc1ccc(Nc2ncc(C(F)(F)F)c(Nc3ccc(C#CC(C)O)c4c3C(=O)N(C)C4)n2)cc1 (centres unmarked) [Example 76, Ethyl (4-{[4-{[7-(3-hydroxybut-1-yn-1-yl)-2-methyl-3-oxo-2,3-dihydro-1H-isoindol-4-yl]amino}-5-(trifluoromethyl)pyrimidin-2-yl]amino}benzyl)methylphosphinate] | < 1 | 1 to 10 | < 1 | – |
| CCOP(C)(=O)Cc1ccc(Nc2ncc(C(F)(F)F)c(Nc3ccc(C#CCO)c4c3C(=O)N(C)C4)n2)cc1 (centres unmarked) [Example 77, Ethyl (4-{[4-{[7-(3-hydroxyprop-1-yn-1-yl)-2-methyl-3-oxo-2,3-dihydro-1H-isoindol-4-yl]amino}-5-(trifluoromethyl)pyrimidin-2-yl]amino}benzyl)methylphosphinate] | < 1 | < 1 | < 1 | – |
| CCOP(C)(=O)Cc1ccc(Nc2ncc(C(F)(F)F)c(Nc3ccc(C(C)C)c4c3C(=O)N(C)C4)n2)cc1 (centres unmarked) [Example 78, Ethyl methyl(4-{[4-{[2-methyl-3-oxo-7-(propan-2-yl)-2,3-dihydro-1H-isoindol-4-yl]amino}-5-(trifluoromethyl)pyrimidin-2-yl]amino}benzyl)phosphinate] | < 1 | – | < 1 | – |
| CCOP(C)(=O)Cc1ccc(Nc2ncc(C(F)(F)F)c(Nc3ccc(C4CCC(O)CC4)c4c3C(=O)N(C)C4)n2)cc1 (centres unmarked) [Example 79, Ethyl (4-{[4-{[7-(4-hydroxycyclohexyl)-2-methyl-3-oxo-2,3-dihydro-1H-isoindol-4-yl]amino}-5-(trifluoromethyl)pyrimidin-2-yl]amino}benzyl)methylphosphinate] | < 1 | < 1 | < 1 | – |
| CCOP(C)(=O)Cc1ccc(Nc2ncc(C(F)(F)F)c(Nc3ccc(N4CCCC4)c4c3C(=O)N(C)C4)n2)cc1 (centres unmarked) [Example 80, Ethyl methyl(4-{[4-{[2-methyl-3-oxo-7-(pyrrolidin-1-yl)-2,3-dihydro-1H-isoindol-4-yl]amino}-5-(trifluoromethyl)pyrimidin-2-yl]amino}benzyl)phosphinate] | < 1 | < 1 | < 1 | – |
| CCOP(C)(=O)Cc1ccc(Nc2ncc(C(F)(F)F)c(Nc3ccc(N4CCC(O)C4)c4c3C(=O)N(C)C4)n2)cc1 (centres unmarked) [Example 81, Ethyl (4-{[4-{[7-(3-hydroxypyrrolidin-1-yl)-2-methyl-3-oxo-2,3-dihydro-1H-isoindol-4-yl]amino}-5-(trifluoromethyl)pyrimidin-2-yl]amino}benzyl)methylphosphinate] | < 1 | < 1 | < 1 | – |
| CCOP(C)(=O)Cc1ccc(Nc2ncc(C(F)(F)F)c(Nc3ccc(N4CCCCC4)c4c3C(=O)N(C)C4)n2)cc1 (centres unmarked) [Example 82, Ethyl methyl(4-{[4-{[2-methyl-3-oxo-7-(piperidin-1-yl)-2,3-dihydro-1H-isoindol-4-yl]amino}-5-(trifluoromethyl)pyrimidin-2-yl]amino}benzyl)phosphinate] | < 1 | < 1 | < 1 | – |
| CCOP(=O)(Cc1ccc(Nc2ncc(C(F)(F)F)c(Nc3ccc(N4CCCC4)c4c3C(=O)N(C)C4)n2)c(OC)c1)OCC [Example 83, Diethyl (3-methoxy-4-{[4-{[2-methyl-3-oxo-7-(pyrrolidin-1-yl)-2,3-dihydro-1H-isoindol-4-yl]amino}-5-(trifluoromethyl)pyrimidin-2-yl]amino}benzyl)phosphonate] | – | – | < 1 | < 1 |
| CCOP(=O)(Cc1ccc(Nc2ncc(C(F)(F)F)c(Nc3ccc(N4CC[C@H](O)C4)c4c3C(=O)N(C)C4)n2)c(OC)c1)OCC [Example 84, Diethyl (4-{[4-({7-[(3S)-3-hydroxypyrrolidin-1-yl]-2-methyl-3-oxo-2,3-dihydro-1H-isoindol-4-yl}amino)-5-(trifluoromethyl)pyrimidin-2-yl]amino}-3-methoxybenzyl)phosphonate] | – | – | < 1 | < 1 |
| CCOP(=O)(Cc1ccc(Nc2ncc(C(F)(F)F)c(Nc3ccc(N4CCC(O)CC4)c4c3C(=O)N(C)C4)n2)c(OC)c1)OCC [Example 85, Diethyl (4-{[4-{[7-(4-hydroxypiperidin-1-yl)-2-methyl-3-oxo-2,3-dihydro-1H-isoindol-4-yl]amino}-5-(trifluoromethyl)pyrimidin-2-yl]amino}-3-methoxybenzyl)phosphonate] | – | – | < 1 | < 1 |
| CCOP(=O)(Cc1ccc(Nc2ncc(C(F)(F)F)c(Nc3ccc(N4CCCC(O)C4)c4c3C(=O)N(C)C4)n2)c(OC)c1)OCC (centres unmarked) [Example 86, Diethyl (4-{[4-{[7-(3-hydroxypiperidin-1-yl)-2-methyl-3-oxo-2,3-dihydro-1H-isoindol-4-yl]amino}-5-(trifluoromethyl)pyrimidin-2-yl]amino}-3-methoxybenzyl)phosphonate] | – | – | < 1 | < 1 |
| CCOC(=O)[C@H]1CC[C@@H](c2ccc(Nc3nc(Nc4ccc(CP(=O)(OCC)OCC)cc4OC)ncc3C(F)(F)F)c3c2CN(C)C3=O)CC1 [Example 87, Ethyl cis-4-(7-{[2-({4-[(diethoxyphosphoryl)methyl]-2-methoxyphenyl}amino)-5-(trifluoromethyl)pyrimidin-4-yl]amino}-2-methyl-1-oxo-2,3-dihydro-1H-isoindol-4-yl)cyclohexanecarboxylate] | – | – | < 1 | < 1 |
| CCOC(=O)[C@H]1CC[C@H](c2ccc(Nc3nc(Nc4ccc(CP(=O)(OCC)OCC)cc4OC)ncc3C(F)(F)F)c3c2CN(C)C3=O)CC1 [Example 88, Ethyl trans-4-(7-{[2-({4-[(diethoxyphosphoryl)methyl]-2-methoxyphenyl}amino)-5-(trifluoromethyl)pyrimidin-4-yl]amino}-2-methyl-1-oxo-2,3-dihydro-1H-isoindol-4-yl)cyclohexanecarboxylate] | – | – | < 1 | < 1 |
| CCOP(=O)(Cc1ccc(Nc2ncc(C(F)(F)F)c(Nc3ccc([C@H]4CC[C@H](C(=O)O)CC4)c4c3C(=O)N(C)C4)n2)c(OC)c1)OCC [Example 90, Trans-4-(7-{[2-({4-[(diethoxyphosphoryl)methyl]-2-methoxyphenyl}amino)-5-(trifluoromethyl)pyrimidin-4-yl]amino}-2-methyl-1-oxo-2,3-dihydro-1H-isoindol-4-yl)cyclohexanecarboxylic acid] | – | – | < 1 | < 1 |
